Laboratory results published in paper PMC7933930, “Development of a small molecule that corrects misfolding and increases secretion of Z α1‐antitrypsin” (EMBO Molecular Medicine, 2021).

What was measured:
[1] = system: Z α1‐antitrypsin polymers in CHO cells; experiment: Soluble and insoluble polymers in CHO cells expressing Z α1‐antitrypsin (NP‐40 fractions, 2C1 immunoprecipitation, immunoblot); type: cell-based; details: pre‐treatment 48 h with 10 μM GSK716, CHO cells induced with doxycycline
Procedure: Figure 2 GSK716 inhibits polymerisation of Z α1‐antitrypsin in cell models of disease • A GSK716 was added to CHO‐TET‐ON‐Z‐A1AT cells (Ordóñez et al, 2013) with simultaneous induction of Z α1‐antitrypsin expression using doxycycline, and polymer load was quantified with the 2C1 monoclonal antibody that is specific to pathological polymers of α1‐antitrypsin (Miranda et al, 2010). […] Data were normalised to vehicle and a control compound from the GSK716 series at saturating concentration. […] It induced an approximately threefold increase in secreted levels of Z α1‐antitrypsin compared with vehicle control. This was apparent even after polymers had been allowed to form. Scale bar: 100 µm. Data presented as mean ± SD, n = 8 (secretion) and n = 6 (polymer inhibition). • E CHO tetracycline‐inducible cells expressing Z α1‐antitrypsin were induced with 0.5 μg/ml doxycycline for 48 h and treated with 10 μM GSK716. […] For every time point, NP‐40‐soluble and NP‐40‐insoluble fractions were separated and immunoprecipitated with the 2C1 mAb and resolved by 4–12% w/v SDS–PAGE and α1‐antitrypsin detected by immunoblotting. […] Cell viability was measured by Cell Counting Kit‐8. […] Samples were resolved by 4–12% w/v acrylamide SDS–PAGE and detected by autoradiography. • H The graphs show the effect of GSK716 on intracellular and extracellular Z α1‐antitrypsin (mean ± SEM, n = 2). […]

neuroserpin = neuroserpin (Homo sapiens, UniProt Q99574); experiment: Inhibitory activity of neuroserpin against trypsin; type: biochemical
Procedure: Figure 5 The effect of GSK716 on serpin inhibitory activity • α1‐Antitrypsin was incubated at varying molar ratios with the model protease bovine α‐chymotrypsin, and the residual protease activity determined. The intercept of the regression with the abscissa reflects the number of molecules of α1‐antitrypsin required to inhibit one molecule of chymotrypsin in the presence (+c) and absence (−c) of 50µM GSK716. Error bars reflect ± SEM of three independent experiments. • M α1‐antitrypsin was incubated with different molar ratios of chymotrypsin and resolved by SDS–PAGE. The position of covalent α1‐antitrypsin‐chymotrypsin complex (cpx), native (nat) and cleaved (clv) is shown. • The inhibitory activity of α1‐antichymotrypsin against chymotrypsin (ach + chym), neuroserpin against trypsin (neus + tryp), and antithrombin against thrombin (atiii + thrombin) was determined in the presence and absence of GSK716. Error bars reflect ± SD of two independent experiments.
GSK716 selectivity and PK properties were profiled in order to investigate the suitability of GSK716 for progression into in vivo studies and the potential for taking it forward as a clinical candidate for testing in humans. Since GSK716 results in loss of inhibitory activity of α1‐antitrypsin, the effect of the compound was assessed on other closely related serpins. […]

serum albumin = experiment: Circulating serum albumin in Z α1‐antitrypsin transgenic mice; type: in vivo, mouse; details: after 5 days of dosing
Procedure: A significant fraction of the total Z α1‐antitrypsin in the circulation is in the polymeric conformation (Tan et al, 2014). There are no antibodies that are specific for monomeric Z α1‐antitrypsin and so to directly determine its concentration, a deconvolution method was developed based on immunoassays with antibodies for either total or polymeric α1‐antitrypsin, and calibration curves with purified monomeric and polymeric Z α1‐antitrypsin. Monomeric Z α1‐antitrypsin was measured in plasma samples following 6 days of dosing, and levels were normalised to each animals’ pre‐dose control levels to account for the natural variation of Z α1‐antitrypsin between animals. […] Total drug levels and changes in Z α1‐antitrypsin following 3 days of dosing were indistinguishable from those following 6 days of dosing. There was no effect on circulating serum albumin after 5 days of dosing which provides evidence that GSK716 is specific for Z α1‐antitrypsin. Moreover, the effects are not mediated by metabolites of GSK716 as the major metabolites have much reduced or no binding to α1‐antitrypsin.

OPRK1 = OPRK1 (Homo sapiens, UniProt P41145); experiment: Off‐target panel: OPRK1 (DRX); type: cell-based
Procedure: GSK716 selectivity and PK properties were profiled in order to investigate the suitability of GSK716 for progression into in vivo studies and the potential for taking it forward as a clinical candidate for testing in humans. Since GSK716 results in loss of inhibitory activity of α1‐antitrypsin, the effect of the compound was assessed on other closely related serpins. […] Furthermore, there were no off‐target effects in a panel of assays considered predictive of known safety liabilities that precluded further development of GSK716 (Table EV1).

OPRK1, sequence (P41145 whole entry, species assumed): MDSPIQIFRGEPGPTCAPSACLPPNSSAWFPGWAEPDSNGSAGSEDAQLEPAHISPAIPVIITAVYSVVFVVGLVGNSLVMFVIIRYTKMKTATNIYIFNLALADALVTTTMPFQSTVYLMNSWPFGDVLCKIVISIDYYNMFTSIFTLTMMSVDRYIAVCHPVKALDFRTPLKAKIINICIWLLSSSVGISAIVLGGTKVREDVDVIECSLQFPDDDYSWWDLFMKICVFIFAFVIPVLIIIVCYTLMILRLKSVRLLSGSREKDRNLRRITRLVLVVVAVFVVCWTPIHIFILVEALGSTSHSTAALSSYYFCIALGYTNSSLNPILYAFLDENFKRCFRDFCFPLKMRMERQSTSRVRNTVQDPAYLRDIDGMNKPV
neuroserpin, sequence (Q99574 17-410, species assumed): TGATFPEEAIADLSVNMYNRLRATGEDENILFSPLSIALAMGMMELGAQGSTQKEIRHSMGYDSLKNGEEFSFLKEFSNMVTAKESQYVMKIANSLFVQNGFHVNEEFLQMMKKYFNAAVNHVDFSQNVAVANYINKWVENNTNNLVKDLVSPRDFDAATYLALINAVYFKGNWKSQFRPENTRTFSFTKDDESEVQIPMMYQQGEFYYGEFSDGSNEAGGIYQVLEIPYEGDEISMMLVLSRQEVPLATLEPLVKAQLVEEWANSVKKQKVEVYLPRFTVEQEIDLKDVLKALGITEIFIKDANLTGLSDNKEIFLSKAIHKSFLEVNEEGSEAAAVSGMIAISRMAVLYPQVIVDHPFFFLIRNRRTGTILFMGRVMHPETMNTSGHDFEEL

CCC[C@@H](NC(=O)c1cccc2c1CC(=O)N2)[C@@H](O)c1cccc(F)c1C [GSK716]
formation of soluble and insoluble polymers [1]: significantly reduced | inhibitory activity of neuroserpin towards its cognate protease (neuroserpin): did not affect | effect on circulating serum albumin (serum albumin): no effect | EC50 (OPRK1): 20 µM
